± gives the expanded uncertainty stated by the source.
Settings: 303.15 K; Liquid; Closed cell (Static) method

SMILES | vapor or sublimation pressure [kPa]
CCO [ethanol] | 10.42 ± 0.38
CC1CO1 (centres undefined) [methyloxirane] | 86.9 ± 1.2
CCCO [propan-1-ol] | 3.63 ± 0.31

Same assay, conditions: 318.15 K; Liquid; Closed cell (Static) method

SMILES | vapor or sublimation pressure [kPa]
CCO [ethanol] | 23.02 ± 0.46
CC1CO1 (centres undefined) [methyloxirane] | 147.85 ± 1.9
CCCO [propan-1-ol] | 9.01 ± 0.34

Same assay, conditions: 333.15 K; Liquid; Closed cell (Static) method

SMILES | vapor or sublimation pressure [kPa]
CCO [ethanol] | 46.63 ± 0.58
CC1CO1 (centres undefined) [methyloxirane] | 237.88 ± 2.8
CCCO [propan-1-ol] | 19.93 ± 0.39
